Source: US12390505B2, “Composition for preventing or treating obesity or diabetes, comprising acanthopanax senticosus extract and garcinia cambogia extract or compound isolated therefrom” (KOREA RESEARCH INSTITUTE OF BIOSCIENCE AND BIOTECHNOLOGY, priority 2020, dated 2025)
Read-outs that look alike come from different tables or passages of the source.

Columns and labels:
3T3-L1 cells [1] = conditions: for Cell Viability: mouse
Experimental: DMEM medium (Gibco) supplemented with 10% Bovine Calf Serum and 1% Penicillin-streptomycin was used as a growth media (GM) to culture 3T3-L1 cells, which are mouse preadipocytes. The suspension was suspended at a concentration of 2×10^3 cells/ml, and 100 μl each was inoculated into a 96-well plate, and the cells were cultured to full capacity for 3 days. In order to induce fat differentiation, DMEM medium containing 10% FBS was replaced with a differentiation media (DM) supplemented with insulin, dexamethasone and 3-isobutyl-1-methylxanthine (IBMX), and cultured for 2 days. After 2 days, DMEM medium containing 10% FBS containing insulin was added to the existing medium. […] As described in the CCK-8 (Dojindo) kit for counting cells, 10 μl of CCK-8 solution was mixed with 90 μl of medium and added at 100 μl per well. After reacting for at least 30 minutes to 1 hour, absorbance was measured at 450 nm.

L6 myotube cells [2] = test: Glucose uptake (2-deoxy-D-[14C]-glucose) in muscle cells; format: cell-based, rat
Experimental: (§1) To differentiate rat myoblast L6 cells into myotubes, it was suspended at a concentration of 1×10^4 cells/ml in MEM medium (Welgene) supplemented with 10% of Fetal Bovine Serum and 1% of antibiotic antimycotic, and then 500 μl each was inoculated into a 24-well plate and cultured to the full for 2 days. […] The differentiated myotube cells were replaced with serum-free medium before the experiment and left for 6 hours. Myotube cells were pretreated with 100 nM porcine-derived insulin and 20 μM cytochalacin B for 15 minutes, and other samples were pretreated for 30 minutes. […] After the reaction, the cells were washed twice with Krebs-Ringer buffer (20 mM Tris-HCl, 2 mM EDTA, and 0.5 mM EGTA, pH 7.4), and the cells were lysed with 0.5N NaOH and mixed with a scintillation cocktail. The intracellular radiation dose of 2-DG was measured using a liquid scintillation counter (Tri-Carb 2900TR liquid scintillation analyzer, Perkin Elmer).

3T3-L1 cells [3] = test: Triglyceride production, Adipogenesis Colorimetric Assay; format: cell-based, mouse
Experimental: 3T3-L1 cells, which are preadipocytes of mice, are suspended at a concentration of 2×10^4 cells/ml using Dulbecco's Modified EaDCRT media (DMEM, Gibco) containing 10% of Bovine Calf Serum as a growth media (GM), and then inoculated into 24-well plates at 1 ml each, and then adipocytes were cultured for 3 days to become confluent. In order to induce adipocyte differentiation, DMEM media containing 10% FBS was replaced with differentiation media (DM) supplemented with insulin, dexamethasone and 3-isobutyl-1-methylanthin (IBMX) and cultured for 2 days. After 2 days, DMEM media containing 10% FBS containing insulin was added to the existing medium. […] After differentiation was induced under the same conditions as above, triglyceride (TG) produced was measured using an Adipogenesis Colorimetric Assay (Biovision) kit. According to the protocol provided in the kit, after washing the cells once with PBS, 100 μl of Lipid Extract solution was added to scrape the cells, and the cells were placed at 90° C. for 30 minutes. Thereafter, the supernatant, which had turned cloudy, was left at room temperature until it became transparent, and then 50 μl of the supernatant was obtained and transferred to a 96-well plate. After adding 2 μl of lipase and reacting for 10 minutes, 50 μl of the reaction mixture containing the probe and enzyme mix was added and reacted, and the degree of color development was measured at 570 nm with a microplate meter. The concentration of triglyceride produced in the cells was determined using a standard curve for each concentration according to the triglyceride sample included in the kit.

L6 myotube cells [4] = test: Isobologram analysis of glucose absorption capacity, chiisanogenin and Ca-HCA; format: cell-based; conditions: Rattus norvegicus; differentiated L6 myotube cells, single compound
Experimental: as §1

[5] = Example 12 HFD mice: oral glucose tolerance test; format: in vivo, mouse; conditions: oral once daily 10 weeks, 50 mg/kg
Experimental: After adapting 8-week-old male C57b1/6 J mice to the basic diet (AIN-76A diet) for 2 weeks, and consuming Diet Induced Obesity Diet Formulas (D12451) 60 kcal % HFD diet for 2 weeks from 10 weeks of age, and then the test drug was administered when the average body weight reached 28 g or more. The animal breeding room environment of the mouse was maintained in a constant temperature (25±2° C.), constant humidity (50±5%) and a 12-hour photoperiod (light on 07:00˜19:00) in which the light and shade were controlled in an SPF environment. […] The test drug was dispersed in 0.5% Carboxymethyl cellulose (CMC) and administered in a volume of 0.2 ml, and the drug was administered orally by force into the stomach using a metal Zonde for oral administration.
[…] Blood to be used for blood glucose measurement was collected from the tail vein of a mouse, and blood glucose was measured using a serum analyzer (Accutrend plus GCTL Cobas Roche, Germany).
Results obtained from various experiments are recorded as mean±standard error of mean (SEM), and significance verification is determined using the student's T-test analysis method. The data were analyzed using one-way ANOVA to determine a statistically significant variance between each group for each final point measured, and statistical significance between each group was determined using the nonparametric Mann-Whitney test and Dunnett's multiple comparison test (IBM SPSS statistics version 19.0 statistic software, Inc, IBM, USA).

PPAR-gamma mRNA = test: Example 12 HFD mice: adipose tissue PPAR-gamma mRNA analysis; format: in vivo, mouse; conditions: adipose tissue of HFD mice, oral once daily for 10 weeks, chiisanogenin 50 mg/kg, Garcinia cambogia extract 200 mg/kg, combination 50 + 150 mg/kg, Met 50 mg/kg
Experimental: The test drug was dispersed in 0.5% Carboxymethyl cellulose (CMC) and administered in a volume of 0.2 ml, and the drug was administered orally by force into the stomach using a metal Zonde for oral administration. RNA was extracted from tissues using RNAsolB (Tel-Test) solution, and cDNA and real-time PCR analysis were performed using One-step SYBR Green PCR kit (AB science). From the prepared cDNA, a FAM probe of [NT] ID NO: 16) sequence was used to amplify PPAR-gamma mRNA, and a VIC probe of [NT] ID NO: 15) sequence was used to amplify GAPDH mRNA as an intra control. Real time quantitative PCR was performed using the Applied Biosystems 7500 Real-Time PCR system (Applied Biosystems, USA). Results obtained from various experiments are recorded as mean±standard error of mean (SEM), and significance verification is determined using the student's T-test analysis method. The data were analyzed using one-way ANOVA to determine a statistically significant variance between each group for each final point measured, and statistical significance between each group was determined using the nonparametric Mann-Whitney test and Dunnett's multiple comparison test (IBM SPSS statistics version 19.0 statistic software, Inc, IBM, USA).

[6] = Example 12 HFD mice: serum test; format: in vivo, mouse; conditions: serum of HFD mice, oral once daily for 10 weeks; chiisanogenin 50 mg/kg; Garcinia cambogia extract 200 mg/kg; combination 50 + 150 mg/kg; Met 50 mg/kg
Experimental: The test drug was dispersed in 0.5% Carboxymethyl cellulose (CMC) and administered in a volume of 0.2 ml, and the drug was administered orally by force into the stomach using a metal Zonde for oral administration. Blood was collected by cardiac puncture to conduct a blood biochemical test after the end of the final experiment, and then plasma was separated by centrifugation at 3,000 rpm and 4° C. for 15 minutes within 30 minutes after blood collection, and then stored at −74° C. for blood chemistry and ELISA analysis. The contents of total cholesterol, high-density lipoprotein (HDL), low-density lipoprotein (LDL), triglyceride, FFA, glucose, and LDH, which are indicators of lipid content, were measured using an automated biochemical analyzer (Hitachi-720, Hitachi Medical, Japan). IGF-1 and Creatine were diluted in coating buffer, coated on microwells, and left overnight at 4° C. […] 100 μl of the TMB substrate was dispensed, left in the dark for 30 minutes, treated with 50 μl of the stop solution, and absorbance was measured at a wavelength of 450 nm using an ELISA reader. Results obtained from various experiments are recorded as mean±standard error of mean (SEM), and significance verification is determined using the student's T-test analysis method. […]

3T3-L1 cells [7] = test: Fat accumulation, Oil Red O staining; format: cell-based, mouse
Experimental: 3T3-L1 cells, which are preadipocytes of mice, are suspended at a concentration of 2×10^4 cells/ml using Dulbecco's Modified EaDCRT media (DMEM, Gibco) containing 10% of Bovine Calf Serum as a growth media (GM), and then inoculated into 24-well plates at 1 ml each, and then adipocytes were cultured for 3 days to become confluent. […] In order to measure lipid accumulation after inducing the adipocyte differentiation, it was measured using Oil red 0 staining analysis (Sigma-aldrich). To fix the cells, 1% formaldehyde (based on distilled water) was added and reacted at 4° C. for 1 hour, followed by washing with distilled water, and then stained with 500 μl of filtered Oil Red 0 solution at room temperature for 1 hour. Then, after washing with distilled water, 300 μl of 100% isopropyl alcohol was added to extract intracellular oil red 0, and the degree of color development was measured at 492 nm using a microplate measuring instrument.

[8] = Mus musculus, 3T3-L1, read-out: Inhibition Rate (TG production)
[9] = Table 6, mixture ratio 0:10, 25 μg/mL

Compound: O=C(O)CC(O)(C(=O)O)C(O)C(=O)O (centres unmarked) [Ca-HCA, hydroxy citric acid]
- Cytotoxicity (conclusion from Tables 3 to 5) (3T3-L1 cells [1]): not cytotoxic
- Cell Viability (3T3-L1 cells [1]; 12.5 μg/mL): 113.20 ± 14.37%
- Cell Viability (3T3-L1 cells [1]; 25 μg/mL): 115.37 ± 8.86%
- Cell Viability (3T3-L1 cells [1]; 50 μg/mL): 86.24 ± 8.74%
- Cell Viability (3T3-L1 cells [1]; 100 μg/mL): 88.65 ± 11.58%
- Glucose absorption rate (%, relative to 100 nM insulin treatment as 100%) (L6 myotube cells [2]; 5 μg/mL): 5%
- Glucose absorption rate (%, relative to 100 nM insulin treatment as 100%) (L6 myotube cells [2]; 30 μg/mL): 50%
- inhibition at 25 µg/mL (3T3-L1 cells [3]; Mus musculus, 3T3-L1, Table 9, 25 μg/mL, read-out: Inhibition Rate (TG production)): 6.62 ± 0.98%
- inhibition at 50 µg/mL (3T3-L1 cells [3]; Mus musculus, 3T3-L1, Table 9, 50 μg/mL, read-out: Inhibition Rate (TG production)): 11.4 ± 0.88%
- TG Production Rate (% relative to positive control) (3T3-L1 cells [3]; Table 9, 25 μg/mL): 94.51 ± 0.81%
- TG Production Rate (% relative to positive control) (3T3-L1 cells [3]; Table 9, 50 μg/mL): 90.54 ± 0.73%
- EC50 (L6 myotube cells [4]): 27.6 µM

Compound: C=C(C)[C@@H]1CC[C@]2(C(=O)O)CC[C@]3(C)[C@H](C[C@H]4OC(=O)C[C@@H](O)[C@]5(C)[C@@H]4[C@@]3(C)CC[C@H]5C(=C)C)[C@@H]12 [Chiisanogenin, chiisanogenin]
- Cytotoxicity (conclusion from Tables 3 to 5) (3T3-L1 cells [1]): not cytotoxic
- Cell Viability (3T3-L1 cells [1]; 10 μg/mL): 127.27 ± 18.60%
- Cell Viability (3T3-L1 cells [1]; 12.5 μg/mL): 106.41 ± 3.40%
- Cell Viability (3T3-L1 cells [1]; 50 μg/mL): 117.77 ± 9.59%
- Cell Viability (3T3-L1 cells [1]; 100 μg/mL): 104.31 ± 9.72%
- Inhibition Rate (OGTT) [5]: 38%
- OGTT (30 min-0 min, mg/dL) ([5]; glucose 1 g/kg): 127.4 ± 13.03 mg/dL
- Glucose absorption rate (%, relative to 100 nM insulin treatment as 100%) (L6 myotube cells [2]; 5 μg/mL): 1%
- Glucose absorption rate (%, relative to 100 nM insulin treatment as 100%) (L6 myotube cells [2]; 15 μg/mL): 25%
- PPAR-γ mRNA Inhibition Rate (%) (PPAR-gamma mRNA): 49%
- PPAR-γ mRNA, mean ± standard error (PPAR-gamma mRNA; real-time PCR vs GAPDH): 2.134 ± 0.39
- Creatin (mg/dL), mean ± standard error [6]: 0.635 ± 0.007 mg/dL
- inhibition at 10 µg/mL (3T3-L1 cells [3]; [8]): 11.4 ± 5.34%
- inhibition at 25 µg/mL (3T3-L1 cells [3]; [8]): 6.47 ± 0.73%
- inhibition at 50 µg/mL (3T3-L1 cells [3]; [8]): 22.8 ± 0.25%
- TG Production Rate (% relative to positive control) (3T3-L1 cells [3]; Table 8, 10 μg/mL): 90.84 ± 4.21%
- TG Production Rate (% relative to positive control) (3T3-L1 cells [3]; Table 9, 25 μg/mL): 94.63 ± 0.61%
- TG Production Rate (% relative to positive control) (3T3-L1 cells [3]; Table 9, 50 μg/mL): 81.07 ± 0.20%
- inhibition at 10 µg/mL (3T3-L1 cells [7]; Mus musculus, 3T3-L1, Table 7, 10 μg/mL, read-out: Inhibition Rate (fat accumulation)): 11.3 ± 1.47%
- Fat Accumulation Rate (% relative to positive control) (3T3-L1 cells [7]; [9]): 87.21 ± 4.82 %
- Inhibition Rate (fat accumulation) (3T3-L1 cells [7]; [9]): 22.59 ± 7.34%
- Fat Accumulation Rate (% relative to positive control) (3T3-L1 cells [7]; Table 7, 10 μg/mL): 95.13 ± 5.90%
- EC50 (L6 myotube cells [4]): 23.3 µM
